Measurements taken from publication PMC7903134, “Human glucocerebrosidase mediates formation of xylosyl-cholesterol by β-xylosidase and transxylosidase reactions” (Journal of Lipid Research, 2021).

Key:
GBA3 = target: T1, GBA3 (Homo sapiens, UniProt Q9H227); assay: hydrolysis and transxylosylation in lysates of GBA3-overexpressing HEK293 cells; format: cell-based
T1 construct: GBA3 overexpressed in HEK293 cells, lysate
T1 sequence (Q9H227 1-469): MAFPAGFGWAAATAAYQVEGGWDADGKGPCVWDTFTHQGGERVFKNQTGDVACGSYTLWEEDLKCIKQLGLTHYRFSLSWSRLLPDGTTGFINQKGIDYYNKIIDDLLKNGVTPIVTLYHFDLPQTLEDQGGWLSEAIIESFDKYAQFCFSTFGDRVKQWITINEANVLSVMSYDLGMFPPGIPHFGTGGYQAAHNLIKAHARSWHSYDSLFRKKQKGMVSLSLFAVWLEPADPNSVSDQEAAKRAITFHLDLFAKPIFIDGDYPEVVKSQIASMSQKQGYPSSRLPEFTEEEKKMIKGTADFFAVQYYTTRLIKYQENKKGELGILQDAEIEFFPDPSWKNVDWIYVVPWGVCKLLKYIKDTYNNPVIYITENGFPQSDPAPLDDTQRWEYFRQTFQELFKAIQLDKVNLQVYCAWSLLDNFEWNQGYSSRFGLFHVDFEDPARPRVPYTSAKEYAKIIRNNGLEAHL

[1] = target: T2, glucosylceramide synthase (GCS) (Homo sapiens, UniProt Q16739); assay: XylCer formation in lysates of HeLa, GCS KO and GCS-reexpressing cells, LC-MS/MS; format: cell-based
T2 construct: gene UGCG; GCS overexpressed in HeLa GCS KO cells, lysate
T2 sequence (Q16739 1-394): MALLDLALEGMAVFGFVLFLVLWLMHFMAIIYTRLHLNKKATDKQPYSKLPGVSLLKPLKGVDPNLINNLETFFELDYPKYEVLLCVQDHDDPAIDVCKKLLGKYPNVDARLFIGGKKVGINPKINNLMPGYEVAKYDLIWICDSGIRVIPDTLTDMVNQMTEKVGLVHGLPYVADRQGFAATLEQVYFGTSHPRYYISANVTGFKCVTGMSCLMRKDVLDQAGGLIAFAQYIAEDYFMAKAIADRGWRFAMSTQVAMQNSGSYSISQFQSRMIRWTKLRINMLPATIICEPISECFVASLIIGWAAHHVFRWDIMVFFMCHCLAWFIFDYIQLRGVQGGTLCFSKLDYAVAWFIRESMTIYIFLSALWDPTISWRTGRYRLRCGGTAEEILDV
Excerpt: formation in lysates of HeLa, GCS KO and GCS-reexpressing cells, LC-MS/MS on glucosylceramide synthase (GCS) | Expression of GCS in the GCS KO cells reinstalled their ability to produce […]

[2] = target: T3, glucocerebrosidase (GBA), recombinant human (rhGBA, Cerezyme) (Homo sapiens, UniProt P04062); assay: transxylosylation/transglucosylation acceptor, LC-MS/MS of products; format: biochemical
T3 construct: gene GBA1
T3 sequence (P04062 40-536): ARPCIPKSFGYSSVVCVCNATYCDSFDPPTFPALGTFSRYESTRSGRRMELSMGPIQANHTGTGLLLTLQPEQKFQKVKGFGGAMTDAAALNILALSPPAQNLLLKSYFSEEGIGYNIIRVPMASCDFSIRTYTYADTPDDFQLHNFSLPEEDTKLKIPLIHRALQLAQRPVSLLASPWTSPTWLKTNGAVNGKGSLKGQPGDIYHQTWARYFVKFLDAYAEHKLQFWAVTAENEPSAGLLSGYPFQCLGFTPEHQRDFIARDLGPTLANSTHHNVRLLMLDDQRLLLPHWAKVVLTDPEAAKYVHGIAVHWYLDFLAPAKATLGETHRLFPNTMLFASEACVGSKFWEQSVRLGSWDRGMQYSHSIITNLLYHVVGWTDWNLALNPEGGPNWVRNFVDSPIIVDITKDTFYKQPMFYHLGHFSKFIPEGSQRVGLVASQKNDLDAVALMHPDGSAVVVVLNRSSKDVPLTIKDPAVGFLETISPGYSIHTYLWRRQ

glucocerebrosidase (GBA) = target: T4, glucocerebrosidase (GBA) (Mus musculus, UniProt P17439); assay: irreversible GBA inhibition in RAW264.[…] cells ([…]); xylosylated cholesterol by LC-MS/MS; format: cell-based
T4 construct: gene Gba1; endogenous GBA in RAW264.7 cells
T4 sequence (P17439 20-515): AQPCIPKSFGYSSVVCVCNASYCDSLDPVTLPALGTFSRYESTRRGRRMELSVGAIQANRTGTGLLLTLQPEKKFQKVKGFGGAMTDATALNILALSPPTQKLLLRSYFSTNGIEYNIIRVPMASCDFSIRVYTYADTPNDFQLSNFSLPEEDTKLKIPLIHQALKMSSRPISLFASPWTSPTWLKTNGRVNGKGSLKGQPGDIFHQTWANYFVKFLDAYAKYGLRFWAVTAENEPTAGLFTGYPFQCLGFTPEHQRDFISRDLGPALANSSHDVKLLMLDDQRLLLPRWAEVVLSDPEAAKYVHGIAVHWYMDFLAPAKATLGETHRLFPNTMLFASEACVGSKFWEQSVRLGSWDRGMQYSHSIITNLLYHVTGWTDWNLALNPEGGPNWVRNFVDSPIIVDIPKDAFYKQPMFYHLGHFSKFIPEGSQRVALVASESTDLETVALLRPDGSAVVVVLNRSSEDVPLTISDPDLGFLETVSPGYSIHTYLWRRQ

[3] = target: T3, glucocerebrosidase (GBA), recombinant human (rhGBA, Cerezyme); assay: fluorogenic 4-MU-β-Xyl ([…]) and 4-MU-β-Glc ([…]) hydrolysis after […] min preincubation; format: biochemical

Cc1cc(=O)oc2cc(O[C@@H]3OC[C@@H](O)[C@H](O)[C@H]3O)ccc12 [4-methylumbelliferyl β-D-xyloside]
hydrolysis and transxylosylation in lysates of GBA3-overexpressing HEK293 cells (GBA3): GBA3, albeit less prominent than GBA, was found to be able to hydrolyze 4-MU-β-Xyl

O=c1ccn([C@@H]2O[C@H](COP(=O)(O)OP(=O)(O)O[C@H]3OC[C@@H](O)[C@H](O)[C@H]3O)[C@@H](O)[C@H]2O)c(=O)[nH]1 [UDP-Xyl]
XylCer formation in lysates of HeLa, GCS KO and GCS-reexpressing cells, LC-MS/MS [1]: Expression of GCS in the GCS KO cells reinstalled their ability to produce XylCer

CC(C)CCC[C@@H](C)[C@H]1CC[C@H]2[C@@H]3CC=C4C[C@@H](O)CC[C@]4(C)[C@H]3CC[C@]12C [cholesterol]
transxylosylation/transglucosylation acceptor, LC-MS/MS of products [2]: we used natural cholesterol as the acceptor and 4-MU-β-Xyl as the donor

O[C@H]1[C@H](O)[C@@H](O)[C@@H]2O[C@@H]2[C@@H]1O [conduritol B-epoxide, L-1,2-anhydro-myo-inositol]
irreversible GBA inhibition in RAW264.7 cells (300 μM); xylosylated cholesterol (glucocerebrosidase (GBA)): formation was prohibited by prior inhibition of GBA with CBE

OC[C@@H]1[C@@H](O)[C@H](O)[C@@H](O)[C@@H]2O[C@H]12 [cyclophellitol]
IC50 [3]: 61 nM
